Converted amounts (≈) assume the structure as drawn. “And” between values parts separate entries of the source, which are not always exact repeats. Equal entries are not always repeated.
Columns and labels:
B. subtilis (MDR00423) [1] = test: Agar well-diffusion antimicrobial sensitivity assay; assay type: cell-based; settings: 100 mg/mL in DMSO, 50 μL per well, ± SD
S. aureus (MDR00231) [2] = test: as above; assay type: cell-based, Staphylococcus aureus; settings: for Inhibition Zone (IZ): S. aureus, 100 mg/mL in DMSO, 50 μL per well, ± SD
E. coli (MDR00501) [3] = test: as above; assay type: cell-based; settings: for Inhibition Zone (IZ): E. coli, 100 mg/mL in DMSO, 50 μL per well, ± SD
[4] = system: C. albicans100 (MDR00100); test: as above; assay type: cell-based, Candida albicans; settings: for Inhibition Zone (IZ): C. albicans100, 100 mg/mL in DMSO, 50 μL per well, ± SD
A. baumannii (MDR00521) [5] = test: as above; assay type: cell-based; settings: 100 mg/mL in DMSO, 50 μL per well, ± SD
K. pneumoniae (MDR00244) [6] = test: as above; assay type: cell-based; settings: 100 mg/mL in DMSO, 50 μL per well, ± SD
[7] = system: C. albicans200 (MDR00200); test: as above; assay type: cell-based, Candida albicans; settings: for Inhibition Zone (IZ): C. albicans200, 100 mg/mL in DMSO, 50 μL per well, ± SD
[8] = system: S. epidermidis (MDR00223); test: as above; assay type: cell-based, Staphylococcus epidermidis; settings: for Inhibition Zone (IZ): S. epidermidis, 100 mg/mL in DMSO, 50 μL per well, ± SD
A. baumannii [9] = test: Single-step resistance selection; assay type: cell-based; settings: 4 × MIC, 48 h
[10] = system: BNL: mouse normal liver cells; test: In vitro cytotoxicity on normal cell line; assay type: cell-based
[11] = In vitro cytotoxicity on normal cell line; assay type: cell-based, mouse; settings: mouse, BNL normal liver cells
C. albicans200 [12] = test: Single-step resistance selection; assay type: cell-based, Candida albicans; settings: 4 × MIC, 48 h
[13] = In vitro cytotoxicity on normal cell line; assay type: cell-based, rat; settings: rat, H9C2 heart/myocardium cells
[14] = system: H9C2: rat heart/myocardium; test: In vitro cytotoxicity on normal cell line; assay type: cell-based
C. albicans200 [15] = test: Checkerboard combination assay with Ketoconazole; assay type: cell-based, Candida albicans
S. epidermidis [16] = test: Checkerboard combination assay with Ciprofloxacin; assay type: cell-based, Staphylococcus epidermidis
[17] = system: clinical pathogenic isolates; test: Single-step resistance selection, whole panel; assay type: cell-based; settings: 4 × MIC
K. pneumoniae (MDR00244) [18] = test: MIC and MBC by broth microdilution; assay type: cell-based; settings: ratio in parentheses
A. baumannii (MDR00521) [19] = test: MIC and MBC by broth microdilution; assay type: cell-based
B. subtilis [20] = test: Checkerboard combination assay with Ciprofloxacin; assay type: cell-based
E. coli [21] = test: Checkerboard combination assay with Ciprofloxacin; assay type: cell-based
B. subtilis [22] = test: Single-step resistance selection; assay type: cell-based; settings: 4 × MIC, 48 h
[23] = system: Vero: green monkey kidney; test: In vitro cytotoxicity on normal cell line; assay type: cell-based
[24] = In vitro cytotoxicity on normal cell line; assay type: cell-based, green monkey; settings: green monkey, Vero kidney cells
[25] = system: C. albicans100 (MDR00100); test: MIC and MFC by broth microdilution; assay type: cell-based, Candida albicans
C. albicans100 [26] = test: Checkerboard combination assay with Ketoconazole; assay type: cell-based, Candida albicans
A. baumannii [27] = test: Checkerboard combination assay with Ciprofloxacin; assay type: cell-based
E. coli [28] = test: Single-step resistance selection; assay type: cell-based; settings: 4 × MIC, 48 h
S. aureus biofilm = test: Staphylococcus biofilm mass reduction; assay type: cell-based; settings: at their MIC
S. aureus [29] = test: Checkerboard combination assay with Ciprofloxacin; assay type: cell-based, Staphylococcus aureus
[30] = system: C. albicans200 (MDR00200); test: MIC and MFC by broth microdilution; assay type: cell-based, Candida albicans
C. albicans100 [31] = test: Single-step resistance selection; assay type: cell-based, Candida albicans; settings: 4 × MIC, 48 h
S. aureus (MDR00231) [32] = test: MIC and MBC by broth microdilution; assay type: cell-based, Staphylococcus aureus
K. pneumoniae [33] = test: Checkerboard combination assay with Ciprofloxacin; assay type: cell-based
RBCs = test: Hemolytic assay; assay type: cell-based; settings: human RBCs; compounds 1.0 mg/mL; Triton X-100 0.1% v/v; 37 °C, 35 min
[34] = target: T1, dihydrofolate reductase (DHFR) (Homo sapiens, UniProt P00374); test: DHFR inhibition; assay type: biochemical
T1 sequence (P00374 1-187): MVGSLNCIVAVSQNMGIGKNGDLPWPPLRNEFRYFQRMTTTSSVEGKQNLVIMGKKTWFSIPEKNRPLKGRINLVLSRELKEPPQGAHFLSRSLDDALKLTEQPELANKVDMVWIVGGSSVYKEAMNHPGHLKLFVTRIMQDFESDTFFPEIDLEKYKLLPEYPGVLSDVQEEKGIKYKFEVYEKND

S. epidermidis [35] = test: Single-step resistance selection; assay type: cell-based, Staphylococcus epidermidis; settings: 4 × MIC, 48 h
[36] = system: S. epidermidis (MDR00223); test: MIC and MBC by broth microdilution; assay type: cell-based, Staphylococcus epidermidis
E. coli (MDR00501) [37] = test: MIC and MBC by broth microdilution; assay type: cell-based
B. subtilis (MDR00423) [38] = test: MIC and MBC by broth microdilution; assay type: cell-based
S. aureus [39] = test: Single-step resistance selection; assay type: cell-based, Staphylococcus aureus; settings: 4 × MIC, 48 h
E. coli DNA gyrase = E. coli DNA gyrase (Escherichia coli, UniProt P0AES4+P0AES6); test: DNA gyrase inhibition; assay type: biochemical
Chain of E. coli DNA gyrase (P0AES4 whole entry, one chain of several): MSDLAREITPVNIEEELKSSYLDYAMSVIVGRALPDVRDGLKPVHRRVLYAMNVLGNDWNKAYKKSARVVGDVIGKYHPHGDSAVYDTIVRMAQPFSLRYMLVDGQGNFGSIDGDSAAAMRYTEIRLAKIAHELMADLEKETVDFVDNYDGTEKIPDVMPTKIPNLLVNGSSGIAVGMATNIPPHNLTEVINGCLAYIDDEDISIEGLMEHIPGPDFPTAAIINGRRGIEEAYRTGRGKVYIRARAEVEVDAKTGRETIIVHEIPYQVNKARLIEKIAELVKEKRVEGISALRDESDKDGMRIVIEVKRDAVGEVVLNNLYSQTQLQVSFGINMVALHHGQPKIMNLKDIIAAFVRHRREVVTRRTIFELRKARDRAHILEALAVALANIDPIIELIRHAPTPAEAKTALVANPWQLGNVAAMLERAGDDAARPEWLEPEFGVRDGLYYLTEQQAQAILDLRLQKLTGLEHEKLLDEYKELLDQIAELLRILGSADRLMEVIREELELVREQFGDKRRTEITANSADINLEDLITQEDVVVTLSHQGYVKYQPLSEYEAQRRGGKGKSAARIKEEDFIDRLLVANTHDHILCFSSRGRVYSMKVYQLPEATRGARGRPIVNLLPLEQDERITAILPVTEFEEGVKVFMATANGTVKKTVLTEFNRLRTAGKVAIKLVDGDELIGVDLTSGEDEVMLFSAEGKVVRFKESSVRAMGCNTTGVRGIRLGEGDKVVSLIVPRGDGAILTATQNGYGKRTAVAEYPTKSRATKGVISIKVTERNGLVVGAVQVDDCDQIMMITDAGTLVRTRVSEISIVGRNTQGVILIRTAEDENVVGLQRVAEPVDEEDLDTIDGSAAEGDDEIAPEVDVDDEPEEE

K. pneumoniae [40] = test: Single-step resistance selection; assay type: cell-based; settings: 4 × MIC, 48 h
S. epidermidis biofilm = test: Staphylococcus biofilm mass reduction; assay type: cell-based; settings: at their MIC
[41] = Candida albicans, read-out: Inhibition Zone (IZ)

## Cc1c(NN=C2SC3=C(C#N)C(c4ccccc4)C(C#N)=C(N)N3C2=O)c(=O)n(-c2ccccc2)n1C (centres unmarked) [Compound 16a, 5-Amino-2-(2-(1,5-dimethyl-3-oxo-2-phenyl-2,3-dihydro-1H-pyrazol-4-yl)hydrazono)-3-oxo-7-phenyl-2,3-dihydro-7H-thiazolo[3,2-a]pyridine-6,8-dicarbonitrile]
B. subtilis (MDR00423) [1]
  Inhibition Zone (IZ): -ve
S. aureus (MDR00231) [2]
  Inhibition Zone (IZ): -ve
E. coli (MDR00501) [3]
  Inhibition Zone (IZ): -ve
[4]
  Inhibition Zone (IZ): -ve
A. baumannii (MDR00521) [5]
  Inhibition Zone (IZ): -ve
K. pneumoniae (MDR00244) [6]
  Inhibition Zone (IZ): -ve
[7]
  Inhibition Zone (IZ): -ve
[8]
  Inhibition Zone (IZ): -ve

## N#CC(=Cc1ccccc1O)C1=NC(=O)C(=Cc2cn(-c3ccccc3)nc2-c2ccccc2)S1 [Compound 5a, 3-(2-Hydroxyphenyl)-2-(5-((1,3-diphenyl-1H-pyrazol-4-yl)methylene)-4-oxo-4,5-dihydro-thiazol-2-yl)acrylonitrile]
A. baumannii [9]
  Single-step resistance frequency (mutation frequency): 1.80 × 10^–8
[10]; IC50 of BNL / IC50 of DHFR
  Selectivity index against DHFR: 93.23
[10]; IC50 of BNL / IC50 of DNA gyrase
  Selectivity index against DNA gyrase: 4.67
[11]
  IC50 at 72 h: 103 ± 1.44 µM
C. albicans200 [12]
  Single-step resistance frequency (mutation frequency): 4.40 × 10^–7
S. aureus (MDR00231) [2]; Staphylococcus aureus, read-out: Inhibition Zone (IZ)
  zone of inhibition at 100000 µg/mL: 29 ± 0.22 mm
[13]
  IC50 at 72 h: 99.2 ± 2.29 µM
[14]; IC50 of H9C2 / IC50 of DHFR
  Selectivity index against DHFR: 89.37
[14]; IC50 of H9C2 / IC50 of DNA gyrase
  Selectivity index against DNA gyrase: 4.48
E. coli (MDR00501) [3]; Escherichia coli, read-out: Inhibition Zone (IZ)
  zone of inhibition at 100000 µg/mL: 28 ± 0.14 mm
C. albicans200 [15]
  combination effect: S (S: synergism)
  fractional inhibitory concentration index (FICI): 0.5
S. epidermidis [16]
  combination effect: S (S: synergism)
  fractional inhibitory concentration index (FICI): 0.5
[17]
  mutation frequency, range over panel: 2.21 × 10^–7 to 2.71 × 10^–8
[4]; [41]
  zone of inhibition at 100000 µg/mL: 28 ± 0.4 mm
K. pneumoniae (MDR00244) [18]
  MBC/MIC: 1
A. baumannii (MDR00521) [19]; broth microdilution
  MIC (mean ± SEM): 0.48 ± 0.5 µg/mL (≈ 1.01 µM)
A. baumannii (MDR00521) [19]; ratio in parentheses
  MBC/MIC: 0.5
B. subtilis [20]
  combination effect: S (S: synergism)
  fractional inhibitory concentration index (FICI): 0.25
E. coli [21]
  combination effect: S (S: synergism)
  fractional inhibitory concentration index (FICI): 0.5
B. subtilis [22]
  Single-step resistance frequency (mutation frequency): 2.93 × 10^–7
[23]; IC50 of Vero / IC50 of DHFR
  Selectivity index against DHFR: 72.28
[23]; IC50 of Vero / IC50 of DNA gyrase
  Selectivity index against DNA gyrase: 3.62
[24]
  IC50 at 72 h: 80.2 ± 1.79 µM
[25]; C. albicans100, broth microdilution
  MIC (mean ± SEM): 0.43 ± 0.5 µg/mL (≈ 0.906 µM)
[25]; C. albicans100, ratio in parentheses
  MFC/MIC: 0.5
[25]; Candida albicans, read-out: MIC (mean ± SEM), C. albicans100, broth microdilution
  MIC: 0.43 µg/mL (≈ 0.906 µM)
C. albicans100 [26]
  combination effect: S (S: synergism)
  fractional inhibitory concentration index (FICI): 0.25
A. baumannii [27]
  combination effect: S (S: synergism)
  fractional inhibitory concentration index (FICI): 0.5
E. coli [28]
  Single-step resistance frequency (mutation frequency): 2.21 × 10^–7
S. aureus biofilm
  reduction of biofilm formation: 89.1%
S. aureus [29]
  combination effect: S (S: synergism)
  fractional inhibitory concentration index (FICI): 0.5
[30]; C. albicans200, broth microdilution
  MIC (mean ± SEM): 0.24 ± 0.4 µg/mL (≈ 0.506 µM)
[30]; C. albicans200, ratio in parentheses
  MFC/MIC: 1
[30]; Candida albicans, read-out: MIC (mean ± SEM), C. albicans200, broth microdilution
  MIC: 0.24 µg/mL (≈ 0.506 µM)
C. albicans100 [31]
  Single-step resistance frequency (mutation frequency): 2.10 × 10^–8
S. aureus (MDR00231) [32]; S. aureus, ratio in parentheses
  MBC/MIC: 1
S. aureus (MDR00231) [32]; Staphylococcus aureus, read-out: MIC (mean ± SEM), S. aureus, broth microdilution
  MIC: 0.48 ± 0.1 µg/mL (≈ 1.01 µM)
K. pneumoniae [33]
  combination effect: S (S: synergism)
  fractional inhibitory concentration index (FICI): 0.25
RBCs
  %lysis of RBCs: 9.67% and 9.67 ± 0.31%
[34]
  IC50: 1.11 ± 0.15 µM
S. epidermidis [35]
  Single-step resistance frequency (mutation frequency): 2.71 × 10^–8
[7]; [41]
  zone of inhibition at 100000 µg/mL: 30 ± 0.6 mm
[36]; S. epidermidis, ratio in parentheses
  MBC/MIC: 0.5
[36]; Staphylococcus epidermidis, read-out: MIC (mean ± SEM), S. epidermidis, broth microdilution
  MIC: 0.49 ± 0.4 µg/mL (≈ 1.03 µM)
E. coli (MDR00501) [37]; E. coli, broth microdilution
  MIC (mean ± SEM): 0.46 ± 0.3 µg/mL (≈ 0.969 µM)
E. coli (MDR00501) [37]; E. coli, ratio in parentheses
  MBC/MIC: 1
E. coli (MDR00501) [37]; Escherichia coli, read-out: MIC (mean ± SEM), E. coli, broth microdilution
  MIC: 0.46 µg/mL (≈ 0.969 µM)
[8]; Staphylococcus epidermidis, read-out: Inhibition Zone (IZ)
  zone of inhibition at 100000 µg/mL: 27 ± 0.24 mm
B. subtilis (MDR00423) [38]; B. subtilis, ratio in parentheses
  MBC/MIC: 1
B. subtilis (MDR00423) [38]; Bacillus subtilis, read-out: MIC (mean ± SEM), B. subtilis, broth microdilution
  MIC: 0.49 ± 0.2 µg/mL (≈ 1.03 µM)
S. aureus [39]
  Single-step resistance frequency (mutation frequency): 3.22 × 10^–7
E. coli DNA gyrase
  IC50: 22.1 ± 0.3 µM
K. pneumoniae [40]
  Single-step resistance frequency (mutation frequency): 1.90 × 10^–8
S. epidermidis biofilm
  reduction of biofilm formation: 79.5%

## N#CC=c1[nH]c(=O)c(=Cc2cn(-c3ccccc3)nc2-c2ccccc2)s1 [Compound 3a, 2-(5-((1,3-Diphenyl-1H-pyrazol-4-yl)methylene)-4-oxothiazolidin-2-ylidene)acetonitrile]
B. subtilis (MDR00423) [1]
  Inhibition Zone (IZ): -ve
S. aureus (MDR00231) [2]
  Inhibition Zone (IZ): -ve
E. coli (MDR00501) [3]
  Inhibition Zone (IZ): -ve
[4]
  Inhibition Zone (IZ): -ve
A. baumannii (MDR00521) [5]
  Inhibition Zone (IZ): -ve
K. pneumoniae (MDR00244) [6]
  Inhibition Zone (IZ): -ve
[7]
  Inhibition Zone (IZ): -ve
[8]
  Inhibition Zone (IZ): -ve

## Cc1c(NN=C2SC3=C(C#N)C(c4ccc(Cl)cc4)C(C#N)=C(N)N3C2=O)c(=O)n(-c2ccccc2)n1C (centres unmarked) [Compound 16b, 5-Amino-7-(4-chlorophenyl)-2-(2-(1,5-dimethyl-3-oxo-2-phenyl-2,3-dihydro-1H-pyrazol-4-yl)hydrazono)-3-oxo-2,3-dihydro-7H-thiazolo[3,2-a]pyridine-6,8-dicarbonitrile]
B. subtilis (MDR00423) [1]
  Inhibition Zone (IZ): -ve
S. aureus (MDR00231) [2]
  Inhibition Zone (IZ): -ve
E. coli (MDR00501) [3]
  Inhibition Zone (IZ): -ve
[4]
  Inhibition Zone (IZ): -ve
A. baumannii (MDR00521) [5]
  Inhibition Zone (IZ): -ve
K. pneumoniae (MDR00244) [6]
  Inhibition Zone (IZ): -ve
[7]
  Inhibition Zone (IZ): -ve
[8]
  Inhibition Zone (IZ): -ve
